Assay results reported in patent publication US9023767B2, “γ-Secretase substrates and methods of use” (Memorial Sloan-Kettering Cancer Center, priority 2009, dated 2015).
“And” between values parts separate entries of the source, which are not always exact repeats. Identical values can stand only once.

Key:
γ-secretase [1] = molecular target: T1, γ-secretase (Homo sapiens (Human), UniProt P49768); assay: In vitro γ-secretase assay, solubilized γ-secretase, ECL; assay type: biochemical; details: Sb4 substrate
Excerpt: The γ-secretase cleaved Aβ product derived from C100Flag substrate was detected by a pair of antibodies (biotinylated 4G8 and ruthenylated G2-10*) while Sb4 cleaved product was detected by ruthenylated G2-10* alone (FIG. 10a) and quantified using electrochemiluminescence (ECL) technology.
An in vitro assay was based on the one previously reported by Li et al. (2000), except we utilized Sb4 substrate that eliminated the need for biotinylated antibody. […] All assays incorporate ruthenylated G2-10* antibody to detect 40-site cleavage of APP or recombinant Sb4 substrate and quantitated activity by measuring ECL.

γ-secretase [2] = molecular target: T2, γ-secretase (Mus musculus (Mouse), UniProt P49769); assay: Cell-based activity assay, N2A cells stably over-expressing APP; details: 24 hrs, Aβ40; read-out: Cell-based (nM), IC50
Experimental: (§1) The potency of two structurally different GSIs was assayed in four unique γ-secretase activity assays. IC50 values were determined from the dose response curves using a non-linear regression analysis in the Prism software. An in vitro assay was based on the one previously reported by Li et al. (2000), except we utilized Sb4 substrate that eliminated the need for biotinylated antibody. The cell-based activity assay used N2A mouse neuroblastoma cells stably over-expressing APP and a biotinylated 4G8 antibody that binds the C-terminus of the amyloid beta peptide. The exo-cell assay incubated HeLa cells simultaneously with GSI, Sb4 substrate as well as 0.25% CHAPSO detergent prior to detecting substrate cleavage. Finally, the extended exo-cell assay first incubated HeLa cells with GSI for 24 hrs. Subsequently, the cells were washed 1× in PBS and then incubated with Sb4 substrate and CHAPSO detergent. The assay was then carried out exactly as described for the original exo-cell method. All assays incorporate ruthenylated G2-10* antibody to detect 40-site cleavage of APP or recombinant Sb4 substrate and quantitated activity by measuring ECL. The latter assays were performed as previously described (Li et al., 2000). In the in vitro assay, recombinant Sb4 substrate was incubated for 2.5 hours at 37° C. in pH 7.0 PIPES buffer in the presence of 0.25% CHAPSO detergent and solubilized γ-secretase at a final concentration of 40 ng/ul. The detection of cleaved substrate was determined using ruthenylated G2-10* antibody. Since the Sb4 substrate is biotinylated additional 6E10 biotinylated antibody used in earlier assays is not required. In the cell-based assay, N2A mouse neuroblastoma cells that stably overexpress amyloid precursor protein were incubated with γ-secretase inhibitors in a final concentration of 1% DMSO for 24 hrs. Following incubation, the supernatant was removed from the cells and assayed for Aβ40, the cleaved APP product, using ruthenylated G2-10* antibody as well as biotinylated 4G8 antibody.

γ-secretase [3] = molecular target: T1, γ-secretase; assay: Exo-cell γ-secretase assay, HeLa cells, Sb4 substrate; assay type: cell-based
Experimental: Therefore, HeLa cells were first incubated with Sb4 substrate, as well as CHAPSO detergent as depicted in FIG. 14c. Cells were seeded at their indicated concentration in 96-well plates and allowed to attach overnight. The next day, media was removed and cells were washed once with PBS. Fresh media was then added containing 0.25% CHAPSO detergent, Sb4 substrate to a final concentration of 1 μM, and 1% DMSO or γ-secretase inhibitor. This was incubated for 2.5 hours at 37° C. Media was removed and cell debris was pelleted from this media for 5 min. at 3,500 rpm. Supernatant was then added to ruthenylated G2-10* antibody that recognizes cleaved product, but not uncleaved substrate. This was incubated for an additional 2 hours at room temperature. Finally, magnetic streptavidin beads were added to a final concentration of 80 μg/ml and incubated for 30 min. at room temperature. Assay buffer was added to the samples and γ-secretase-mediated cleavage of substrate was monitored using electrochemiluminescence (ECL) (Li et al., 2000). (FIG. 14c).
as §1

γ-secretase [4] = molecular target: T1, γ-secretase; assay: Extended exo-cell γ-secretase assay, HeLa cells; assay type: cell-based; details: 24 hrs pretreatment; read-out: Extended Exo-Cell (nM), IC50
Experimental: as §1, with “In the cell-based assay, N2A mouse neuroblastoma cells that stably overexpress amyloid precursor protein were incubated with γ-secretase inhibitors in a final concentration of 1% DMSO for 24 hrs. Following incubation, the supernatant was removed from the cells and assayed for Aβ40, the cleaved APP product, using ruthenylated G2-10* antibody as well as biotinylated 4G8 antibody.” left out
The exo-cell assay was adapted to monitor real-time γ-secretase activity and inhibition over extended times of pretreatment regimens. […] This modified, extended treatment exo-cell assay is capable of quantifying remaining γ-secretase activity following drug treatment on virtually any cell type. The IC50 values for Compound E and GSI-34 were calculated using the extended exo-cell assay (Table 3 and FIG. 15d). […]

A20 mouse lymphoma cells = assay: Lymphoma cell proliferation assay, [3H]thymidine incorporation; assay type: cell-based; details: 48 hours
Experimental: For a lymphoma cell proliferation assay, A20 mouse lymphoma cells were seeded in a 96-well plate at a concentration of 5×10^5 cells/ml in 100 μl RPMI media containing 2% fetal bovine serum. An additional 100 μl of media containing DMSO or γ-secretase inhibitor was added and incubated for 48 hours at 37° C. After this incubation, the cells were incubated for 5 hours with 2 μCi/ml [^3H]thymidine at 37° C. Proliferative response was then evaluated by harvesting the tritiated DNA from cells using a Skatron cell harvester and proliferation assessed as a function of [^3H]thymidine incorporation measured on a β-counter.

γ-secretase [5] = molecular target: T2, γ-secretase; assay: Cellular γ-secretase activity, secreted Aβ40 from N2A APP stable cells; assay type: cell-based; details: 48 hrs
Experimental: FIG. 5. […] The conditioned media were collected and secreted Aβ40 was measured with 6E10/G2-10 antibodies (mean±SEM; n=3). The activities of the peptide treatments were normalized to the DMSO treatment. […] The same experiments were performed as FIG. 5c. The cell lysates were analyzed by CT-15 antibody. Upper panel: full length APP. Lower panel: CTFs. […] The ΔE-Notch1 (a Notch construct with deletion of the extracellular portion and tagged by Myc) was transfected into HEK293 cells.
After transfection or compound treatment, conditioned cell media were collected and diluted in RIPA buffer. Secreted Aβ peptides were detected by ECL assay using biotinylated 6E10 and ruthenylated G2-10 antibodies.

γ-secretase [6] = molecular target: T3, γ-secretase (Homo sapiens (Human), UniProt P49768+Q92542); assay: In vitro γ-secretase assay, HeLa membrane, APP-derived substrates, ECL detection; assay type: biochemical
Experimental: The recombinant proteins were incubated with γ-secretase (40 μg/ml) in the presence or absence of 1 μM γ-secretase inhibitor L-685,458 (CAS [292632-98-5], shown below). The reaction mixture contains 0.25% 3[(3-cholamidopropyl) dimethylammonio]-2-hydroxypropanesulfonic acid (CHAPSO), 0.1 μg/μl BSA, protease inhibitor, 50 mM PIPES, pH 7.0, 5 mM MgCl2, 5 mM CaCl2 and 150 mM KCl. The reaction was incubated for 2.5 hr at 37° C. and stopped by adding RIPA buffer (150 mM NaCl, 1.0% NP-40, 0.5% sodium
[drawing 1] deoxycholate, 0.1% SDS, 50 mM Tris HCl, pH 8.0). The products were detected with various antibody combinations as previously described (Lai et al., 2003; J. Biol. Chem., 278: 22475-22481; Li et al., 2000, Proc. Natl. Acad. Sci. USA, 97: 6138-6143; Yin et al., 2007, J. Biol. Chem., 282:23639-23644) using electrochemiluminescence (ECL). The amount of product was determined using synthetic peptide or recombinant standards. The Km and Vmax were determined from the Michaelis-Menten equation Michaelis-Menten Kinetics (ν=Vm[S]/([…]; ν: initial rate; Vm: maximum velocity; Km: the Michaelis-Menten constant, S: substrate). P-values were calculated from Student t-test. 7.1.5 Cell-Based Aβ Production Assay and Western Blot

γ-secretase [7] = molecular target: T3, γ-secretase; assay: In vitro γ-secretase cleavage of Notch1 peptide substrate, HeLa membrane, Val1744 antibody; assay type: biochemical
Experimental: FIG. 4. […] Various concentrations of inhibitor were incubated with APP substrate (S4) or Notch peptide substrate containing the C-terminal biotinylated transmembrane domain of Notch1 and HeLa cell membrane in the presence of 0.25% CHAPSO. Aβ40 was detected by G2-10 antibody. […] Activities are expressed as percentage relative to reading that was produced in DMSO control. […] Various concentrations of S4 substrate were incubated with HeLa membrane in fixed concentrations of inhibitor as indicated. The double reciprocal velocity (1/v) and substrate concentrations (1/S) are plotted to determine the type of inhibition. […] Assays were conducted as described in FIG. 4A. […] The labeled samples were solubilized with RIPA buffer. Biotinylated proteins were captured with streptavidin-agarose and probed by immunoblotting using antibodies against biotin, PS1-CTF, PS1-NTF, Nicastrin, PEN-2 and APH-1a. HeLa cell membrane proteins were directly loaded onto lanes indicated by an arrow in the PEN-2 and APH-1a blots as positive controls. […] Upper panel: PS1-NTF; Lower panel: PS1-CTF. […] Rev.

γ-secretase [8] = molecular target: T2, γ-secretase; assay: In vitro γ-secretase activity from mouse brain membrane; assay type: biochemical
Experimental: (§2) FIG. 3. Effect of the inhibitory domain on in vitro γ-secretase activity. […] The γ-secretase cleavage site is indicated by an arrow between orange and blue shades. The Aβ17-23 region is marked by dotted square. (B) The kinetic analyses of γ-secretase reactivity with βCTF and βCTFΔ substrates. […] The product Aβ40 was assayed with biotinylated 6E10 and ruthenylated G2-10 antibodies by ECL. […] Note: […] The product Aβ38 was assayed with biotinylated 6E10 and ruthenylated Aβ38 antibodies (purchased from Dr. […]) (data represent the mean of duplicates with variance<10%). (E) The effect of an inhibitory domain on γ-secretase activity for ACID production. HEK293 cell membrane was prepared from cells that have been transfected with β[…] et al., 1999) and βCTFΔ(SPA4CTΔ) constructs for 48 hours. Cell membranes (2 mg/ml) were incubated in the absence and presence of 2 μM L-685,458 and then analyzed by Western blotting with CT-15 antibody (Chen et al., 2002). It was next determined whether γ-secretase from other sources has the same preference for the βCTFΔ substrate. […] Product formation was monitored by G2-10 and G2-11 antibodies, respectively. […] In addition, the γ-secretase activity was assayed for Aβ38 production and ε-cleavage (FIGS. 3D and 3E). The Aβ38-site cleavage was detected with a combination of biotinylated 6E10 and ruthenylated anti-Aβ38 antibodies. […]

γ-secretase [9] = molecular target: T1, γ-secretase; assay: AICD production (ε-cleavage), membranes of transfected HEK293 cells, Western blot; assay type: biochemical
Experimental: as §2

O=C(COc1ccc(F)cc1)Nc1ccc2c(c1)CC1CCC(C2)C1NS(=O)(=O)c1ccc(Cl)s1 (centres unmarked) [GSI-34]
IC50 (γ-secretase [1]): 1 nM | IC50 (γ-secretase [2]): 32.4 nM | IC50 (γ-secretase [3]; ECL detection, read-out: Exo-Cell (nM), IC50): 5.9 nM | IC50 (γ-secretase [3]; HTRF detection, read-out: IC50, exo-cell assay): 5.4 nM | IC50 (γ-secretase [4]): 38.7 nM and 39 nM | reduction of cellular proliferation (A20 mouse lymphoma cells; 300 nM): 30% | inhibition of cellular proliferation (A20 mouse lymphoma cells): able to inhibit cellular proliferation

COC(=O)CC[C@@H](NC(=O)[C@H](N)CC(=O)OC)C(=O)N[C@H](C)C(=O)N[C@H](Cc1ccccc1)C(=O)N[C@H](Cc1ccccc1)C(=O)N[C@@H](C(=O)N[C@H](CC(C)C)C(N)=O)C(C)C [RI-PM-1]
inhibition at 100 µM (γ-secretase [5]; 100 μM, read-out: inhibition of the production of Aβ): 70% | effect on secreted Aβ species (γ-secretase [5]; 100, 60 and 30 μM): reduces secreted Aβ species in a dose dependent manner

VKSEPVEPPL [S2-site derived Notch peptide, N-terminal residues of NEXT]
inhibition of γ-secretase activity, APP processing (γ-secretase [6]): did not inhibit | inhibition of γ-secretase activity, Notch processing (γ-secretase [7]): did not inhibit

B1: βCTFΔ: βCTF in which the Aβ17-23 inhibitory domain is deleted (protein, listed as Homo sapiens)
chain: GSHMDAEFRHDSGYEVHHQKVGSNKGAIIGLMVGGVVIATVIVITLVMLKKKQYTSIHHGVVEVDAAVTPEERHLSKMQQNGYENPTYKFFEQMQNDYKDDDDK
reaction rate of hydrolysis compared to βCTF, 40-site (γ-secretase [8]; G2-10): 25 times | reaction rate of hydrolysis compared to βCTF, 42-site (γ-secretase [8]; G2-11): 11 times | effect of domain deletion on ε-cleavage (AICD) (γ-secretase [9]): no effect
